# Measured values: patent publication US20080004200A1, “Enzyme stabilization” (priority 2006, published 2008)
# Where a SMILES comes first, the peptide text is derived from it. The star is where a group is joined. Moc = COC(=O)*
# System: Gram negative bacteria
# Assay: Gram negative cocktail challenge test in inoculated standard liquid laundry detergent
# Format: cell-based
# Settings: inhibitor 0.004% by weight in standard liquid laundry detergent; for Count (log viable cells): stored at 35° C.
# Method: To determine if a compound is capable of at least inhibiting the growth of at least one Gram negative bacteria in the liquid detergent the following test is performed.
# A mixture of Gram negative bacteria, also known as a Gram negative cocktail or cocktail, is prepared. The Gram negative cocktail comprises a mixture of Pseudomonas aeruginosa ATCC 9027, Pseudomonas fluorescens ATCC 13525, Burkholderia (Pseudomonas) cepacia ATCC 25416, Klebsiella oxytoca ATCC 13182, Escherichia coli ATCC 8739, Citrobacter freundii ATCC 8090 and Serratia liquefaciens ATCC 27592. The Gram negative bacterial cocktail is prepared by growing each organism individually on plates containing a growth medium and picking isolated colonies for preparation of the Gram negative cocktail. The growth medium is TSA (tryptic soy agar, available from Becton Dickinson). TSA contains per liter water: 15 g pancreatic digest of casein, 5 g enzymatic digest of soy bean meal, 5 g sodium chloride, and 15 g agar with the pH adjusted to 7.3±0.2 using hydrochloric acid, HCL (J. T. Baker).
# The individually selected colonies are added to sterilized saline and adjusted to a McFarland standard of #2 (Available from bioMerieux, Inc.) to prepare a standardized saline suspension for the organism. This is repeated for each organism individually, thereby by preparing a standardized saline suspension for each organism. An equal volume (1 ml) of each standardized saline suspension of the following cocktail members are mixed together: Pseudomonas aeruginosa ATCC 9027, Pseudomonas fluorescens ATCC 13525, Burkholderia (Pseudomonas) cepacia ATCC 25416, Klebsiella oxytoca ATCC 13182, Escherichia coli ATCC 8739, Citrobacter freundii ATCC 8090 and Serratia liquefaciens ATCC 27592.
# An inoculated liquid laundry detergent is prepared by the addition to 49.5 ml of the standard liquid laundry detergent, described in Table A below, of 0.5 ml of the Gram negative bacterial cocktail as prepared above. This standard liquid laundry detergent also contains from about 0.00001% to about 5%, by weight of the composition, of one or more of the tripeptide enzyme inhibitors described herein.
# As the cocktail contains approximately 10^7 to 10^8 cfu/ml (colony forming units/ml); the resulting inoculum level in the inoculated liquid laundry detergent is 10^5 to 10^6 cfu/ml. The inoculated liquid laundry detergent is stored at 35° C., a relative humidity of about 60% and at standard pressure, i.e. 1 atmosphere. Samples of Iml are removed from the inoculated liquid laundry detergent at the following times, 1 day, 2 days, 7 days, 14 days, 21 days and 28 days. These 1 ml samples, are immediately neutralized by addition to a neutralizer, namely polyvalent universal neutralizer (PVUN) which contains (per liter distilled water): 30 g Polysorbate 80 (Available under the brand Tween 80, from VWR International), 5 g Sodium thiosulfate, Ig L-Histidine, Ig Peptone, 8.5 g Sodium chloride, 14.3 g Lecithin with the pH adjusted to 7.0±0.2 with HCL.
# Each neutralized sample is then subjected to a serial dilution, to the 10^−5 dilution to allow full enumeration of the surviving microbial population. For example, 1 ml of sample is added to 9 ml of PVUN, resulting in a 1:10 dilution, or 10^−1 dilution. A 1 ml sample of this 1:10 dilution is then added to another 9 ml PVUN, resulting in a 1:100 dilution, or 10^−2 dilution, and so on. Serial dilutions are carried out to 10^−5. 1.0 ml of the various dilutions (10^−1 or 10^−5) are then either spread or pour plated on TSA (tryptic soy agar, Becton Dickinson) and are then incubated for 72 hours at 35° C.±2° C.
# After incubation, the plates are counted and recorded as cfu/ml survival vs. time (days 1, 2, 7, 14, 21, and 28 days). Results are recorded as log viable cells on specified sampling days. […]
smiles,measurement,setting,value
COC(=O)N[C@H](C(=O)N[C@@H](C)C(=O)N[C@H](C=O)CC(C)C)C(C)C (Moc-Val-Ala-Leu-aldehyde),Count (log viable cells),"Day 1, inoculum 10^5 to 10^6 cfu/ml",4.7 log viable cells
same,Count (log viable cells),Day 2,4.0 log viable cells
same,Count (log viable cells),Day 7,<0.1 log viable cells
same,Count (log viable cells),Day 14,<0.1 log viable cells
same,Count (log viable cells),Day 21,<0.1 log viable cells
same,Count (log viable cells),Day 28,<0.1 log viable cells
same,Growth of Gram negative bacteria in liquid laundry detergents,,prevents the growth of Gram negative bacteria
